Results taken from patent US8367668B2, “Pyridazinone derivatives” (Merck Patent Gesellschaft mit Beschränkter Haftung, priority 2007, dated 2013).

The molecules below were run against T1, Met kinase (Homo sapiens, UniProt P08581) (assay: Met kinase inhibition (enzyme assay), flashplate method).
T1 construct: 6His (N); purchased Upstate 14-526; host or cells: Sf21 insect cells (S. frugiperda), baculovirus
Type: biochemical
Text: Measurement of Met Kinase Activity
According to the manufacturer's data (Met, active, upstate, catalogue No. 14-526), Met kinase is expressed for the purposes of protein production in insect cells (Sf21; S. frugiperda) and subsequent affinity-chromatographic purification as “N-terminal 6His-tagged” recombinant human protein in a baculovirus expression vector.
The kinase activity can be measured using various available measurement systems. In the scintillation proximity method (Sorg et al., J. of Biomolecular Screening, 2002, 7, 11-19), the flashplate method or the filter binding test, the radioactive phosphorylation of a protein or peptide as substrate is measured using radioactively labelled ATP (^32P-ATP, ^33P-ATP). In the case of the presence of an inhibitory compound, a reduced radioactive signal, or none at all, can be detected. Furthermore, homogeneous time-resolved fluorescence resonance energy transfer (HTR-FRET) and fluoroescence polarisation (FP) technologies can be used as assay methods (Sills et al., J. of Biomolecular Screening, 2002, 191-214).
Flashplate Method (Met Kinase)
The test plates used are 96-well Flashplate® microtitre plates from Perkin Elmer (Cat. No. SMP200). The components of the kinase reaction described below are pipetted into the assay plate. The Met kinase and the substrate poly Ala-Glu-Lys-Tyr, (pAGLT, 6:2:5:1), are incubated for 3 hrs at room temperature with radioactively labelled ^33P-ATP in the presence and absence of test substances in a total volume of 100 μl. The reaction is terminated using 150 μl of a 60 mM EDTA solution. After incubation for a further 30 min at room temperature, the supernatants are filtered off with suction, and the wells are washed three times with 200 μl of 0.9% NaCl solution each time. The measurement of the bound radioactivity is carried out by means of a scintillation measuring instrument (Topcount NXT, Perkin-Elmer).
The full value used is the inhibitor-free kinase reaction. This should be approximately in the range 6000-9000 cpm. The pharmacological zero value used is staurosporin in a final concentration of 0.1 mM. The inhibitory values (IC50) are determined using the RS1_MTS program.
Kinase reaction conditions per well: • 30 μl of assay buffer • 10 μl of substance to be tested in assay buffer with 10% of DMSO • 10 μl of ATP (final concentration 1 μM cold, 0.35 μCi of ^33P-ATP) • 50 μl of Met kinase/substrate mixture in assay buffer; • (10 ng of enzyme/well, 50 ng of pAGLT/well)
50 mM HEPES • 3 mM magnesium chloride • 3 μM sodium orthovanadate • 3 mM manganese(II) chloride • 1 mM dithiothreitol (DTT)
pH=7.5 (to be set using sodium hydroxide)
60 mM Titriplex III (EDTA)
Met kinase: Upstate, Cat. No. 14-526, Stock 1 μg/10 μl; spec. activity 954 U/mg;
Poly-Ala-Glu-Lys-Tyr, 6:2:5:1: Sigma Cat. No. P1152
Pharmacological Data Met Kinase Inhibitions (Enzyme Assay)

T1 sequence (P08581 974-1390 limits assumed): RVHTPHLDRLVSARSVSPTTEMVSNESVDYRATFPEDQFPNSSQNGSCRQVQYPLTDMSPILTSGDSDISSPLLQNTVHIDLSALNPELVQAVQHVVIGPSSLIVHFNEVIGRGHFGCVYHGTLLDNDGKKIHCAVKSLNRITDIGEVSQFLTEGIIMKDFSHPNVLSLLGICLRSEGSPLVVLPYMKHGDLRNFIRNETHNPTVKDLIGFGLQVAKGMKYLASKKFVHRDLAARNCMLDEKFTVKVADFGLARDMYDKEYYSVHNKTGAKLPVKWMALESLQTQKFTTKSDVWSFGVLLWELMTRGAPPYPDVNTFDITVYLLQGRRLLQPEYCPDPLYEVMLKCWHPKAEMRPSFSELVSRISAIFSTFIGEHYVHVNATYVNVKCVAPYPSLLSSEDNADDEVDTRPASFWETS

SMILES | IC50
CCOC(=O)Nc1cccc(Cn2nc(-c3ccc(C(=O)NCCCCO)cc3)ccc2=O)c1 [A42] | 10 to 1000 nM
CCOC(=O)Nc1cccc(Cn2nc(-c3cccc(C(=O)NCCCCNC(=O)OC(C)(C)C)c3)ccc2=O)c1 [A43, ethyl(3-{3-[3-(4-tert-butoxycarbonylaminobutylcarbamoyl)-phenyl]-6-oxo-6H-pyridazin-1-ylmethyl}phenyl)carbamate] | 10 to 1000 nM
CCOC(=O)Nc1cccc(Cn2nc(-c3ccc(C(=O)NCCS(C)(=O)=O)cc3)ccc2=O)c1 [A7] | 10 to 1000 nM
CCOC(=O)Nc1cccc(Cn2nc(-c3ccc(C(=O)NCCCCN4CCCC4)cc3)ccc2=O)c1 [A28] | 10 to 1000 nM
CCOC(=O)Nc1cccc(Cn2nc(-c3cccc(C(=O)NCCN(C)C)c3)ccc2=O)c1 [A48] | 10 to 1000 nM
CCOC(=O)Nc1cccc(Cn2nc(-c3ccc(CNC(=O)Cn4cnnn4)cc3)ccc2=O)c1 [A79] | 10 to 1000 nM
CCOC(=O)Nc1cccc(Cn2nc(-c3ccc(-c4nnn[nH]4)cc3)ccc2=O)c1 [A172, ethyl(3-{6-oxo-3-[4-(1H-tetrazol-5-yl)phenyl]-6H-pyridazin-1-ylmethyl}phenyl)carbamate] | 10 to 1000 nM
CCOC(=O)Nc1cccc(Cn2nc(-c3cccc(C(=O)NCCCCN)c3)ccc2=O)c1 [A136] | 10 to 1000 nM
CCOC(=O)Nc1cccc(Cn2nc(-c3ccc(C(=O)NCCCO)cc3)ccc2=O)c1 [A5] | 10 to 1000 nM
CCOC(=O)Nc1cccc(Cn2nc(-c3ccc(CC(=O)NCCCCN)cc3)ccc2=O)c1 [A146] | 10 to 1000 nM
CCOC(=O)Nc1cccc(Cn2nc(-c3ccc(C(=O)NCCNC(C)C)cc3)ccc2=O)c1 [A21] | 10 to 1000 nM
CCOC(=O)Nc1cccc(Cn2nc(-c3ccc(C(=O)NCCN(C)C)cc3)ccc2=O)c1 [A15] | 10 to 1000 nM
CCOC(=O)Nc1cccc(Cn2nc(-c3ccc(C(=O)NCCCOC)cc3)ccc2=O)c1 [A16] | 10 to 1000 nM
CCOC(=O)Nc1cccc(Cn2nc(-c3ccc(CO)cc3)ccc2=O)c1 [A123, ethyl{3-[3-(4-hydroxymethylphenyl)-6-oxo-6H-pyridazin-1-ylmethyl]phenyl}carbamate] | 10 to 1000 nM
CCOC(=O)Nc1cccc(Cn2nc(-c3ccc(C(=O)NCCOC)cc3)ccc2=O)c1 [A3] | 10 to 1000 nM
CCOC(=O)Nc1cccc(Cn2nc(-c3cccc(C(=O)NCCCN(C)C)c3)ccc2=O)c1 [A47] | 10 to 1000 nM
CCOC(=O)Nc1cccc(Cn2nc(-c3ccc(CN(Cc4ncc[nH]4)Cc4ncc[nH]4)cc3)ccc2=O)c1 [A171, ethyl{3-[3-(4-{[bis(1H-imidazol-2-ylmethyl)amino]methyl}-phenyl)-6-oxo-6H-pyridazin-1-ylmethyl]phenyl}carbamate] | 10 to 1000 nM
CCOC(=O)Nc1cccc(Cn2nc(-c3ccc(C(=O)NCCCN(CC)CC)cc3)ccc2=O)c1 [A25] | 10 to 1000 nM
CCOC(=O)Nc1cccc(Cn2nc(-c3ccc(C(=O)NCCCN)cc3)ccc2=O)c1 [A130] | 10 to 1000 nM
CCOC(=O)CCNC(=O)c1ccc(-c2ccc(=O)n(Cc3cccc(NC(=O)OCC)c3)n2)cc1 [A13] | 10 to 1000 nM
CCOC(=O)Nc1cccc(Cn2nc(-c3ccc(C(=O)NCCN(CC)CC)cc3)ccc2=O)c1 [A20] | 10 to 1000 nM
CCOC(=O)Nc1cccc(Cn2nc(-c3ccc(C(=O)N(C)CCO)cc3)ccc2=O)c1 [A12] | 10 to 1000 nM

Now from value to molecule:

IC50 | SMILES
10 to 1000 nM | CCOC(=O)Nc1cccc(Cn2nc(-c3ccc(C(=O)NCCCN4CCCC4)cc3)ccc2=O)c1 [A23]
10 to 1000 nM | CCOC(=O)Nc1cccc(Cn2nc(-c3cccc(CNC(=O)CCO)c3)ccc2=O)c1 [A105]
10 to 1000 nM | CCOC(=O)Nc1cccc(Cn2nc(-c3cccc(CNC(=O)CCOC)c3)ccc2=O)c1 [A100]
10 to 1000 nM | CCOC(=O)Nc1cccc(Cn2nc(-c3cccc(CNC(=O)CCN(CC)CC)c3)ccc2=O)c1 [A107]
10 to 1000 nM | CCOC(=O)Nc1cccc(Cn2nc(-c3cccc(CNC(=O)CCNC=O)c3)ccc2=O)c1 [A104]
10 to 1000 nM | CCOC(=O)Nc1cccc(Cn2nc(-c3cccc(CNC(=O)Cn4cnnn4)c3)ccc2=O)c1 [A95]
10 to 1000 nM | CCOC(=O)Nc1cccc(Cn2nc(-c3cccc(CC(=O)NCCO)c3)ccc2=O)c1 [A72]
10 to 1000 nM | CCOC(=O)Nc1cccc(Cn2nc(-c3cccc(CC(=O)NCCCCN(C)C)c3)ccc2=O)c1 [A63]
10 to 1000 nM | CCOC(=O)Nc1cccc(Cn2nc(-c3cccc(CC(=O)NCCCN)c3)ccc2=O)c1 [A140]
10 to 1000 nM | CCOC(=O)Nc1cccc(Cn2nc(-c3ccc(CNC(=O)CO)cc3)ccc2=O)c1 [A85]
10 to 1000 nM | CCOC(=O)Nc1cccc(Cn2nc(-c3cccc(CC(=O)NCCCNC(=O)OC(C)(C)C)c3)ccc2=O)c1 [A61]
10 to 1000 nM | CCOC(=O)Nc1cccc(Cn2nc(-c3ccc(CNC(=O)CCNC=O)cc3)ccc2=O)c1 [A78]
10 to 1000 nM | CCOC(=O)Nc1cccc(Cn2nc(-c3cccc(CNC(=O)CN4CCNCC4)c3)ccc2=O)c1 [A144]
10 to 1000 nM | CCOC(=O)Nc1cccc(Cn2nc(-c3cccc(CNC(=O)COC)c3)ccc2=O)c1 [A99]
10 to 1000 nM | CCOC(=O)Nc1cccc(Cn2nc(-c3cccc(CNC(=O)CCN4CCCCC4)c3)ccc2=O)c1 [A109]
10 to 1000 nM | CCOC(=O)Nc1cccc(Cn2nc(-c3cccc(CNC(=O)Cn4ccccc4=O)c3)ccc2=O)c1 [A94]
10 to 1000 nM | CCOC(=O)Nc1cccc(Cn2nc(-c3ccc(CNC(=O)CCN4CCCCC4)cc3)ccc2=O)c1 [A87]

IC50 | SMILES
10 to 1000 nM | CCOC(=O)Nc1cccc(Cn2nc(-c3cccc(CNC(=O)CN4CCCCC4)c3)ccc2=O)c1 [A110]
10 to 1000 nM | CCOC(=O)Nc1cccc(Cn2nc(-c3ccc(CNC(=O)CCOC)cc3)ccc2=O)c1 [A84]
10 to 1000 nM | CCOC(=O)Nc1cccc(Cn2nc(-c3cccc(CNC(=O)CN4CCOCC4)c3)ccc2=O)c1 [A98]
10 to 1000 nM | CCOC(=O)Nc1cccc(Cn2nc(-c3cccc(CC(=O)NCCCOC)c3)ccc2=O)c1 [A70]
10 to 1000 nM | CCOC(=O)Nc1cccc(Cn2nc(-c3cccc(CC(=O)NCCNC(=O)OC(C)(C)C)c3)ccc2=O)c1 [A62]
10 to 1000 nM | CCOC(=O)Nc1cccc(Cn2nc(-c3cccc(CNC(=O)CCN4CCNCC4)c3)ccc2=O)c1 [A145]
10 to 1000 nM | CCOC(=O)Nc1cccc(Cn2nc(-c3cccc(CNC(=O)Cc4nnn[nH]4)c3)ccc2=O)c1 [A96]
10 to 1000 nM | CCOC(=O)Nc1cccc(Cn2nc(-c3cccc(CNC(=O)CCN4CCN(C(=O)OC(C)(C)C)CC4)c3)ccc2=O)c1 [A108]
10 to 1000 nM | CCOC(=O)Nc1cccc(Cn2nc(-c3cccc(CO)c3)ccc2=O)c1 [A122, ethyl{3-[3-(3-hydroxymethylphenyl)-6-oxo-6H-pyridazin-1-ylmethyl]phenyl}carbamate]
10 to 1000 nM | CCOC(=O)Nc1cccc(Cn2nc(-c3ccc(CNC(=O)CCN4CCNCC4)cc3)ccc2=O)c1 [A142]
10 to 1000 nM | CCOC(=O)Nc1cccc(Cn2nc(-c3cccc(CC(=O)NCCCCN)c3)ccc2=O)c1 [A139]
10 to 1000 nM | CCOC(=O)Nc1cccc(Cn2nc(-c3ccc(CNC(=O)CCN)cc3)ccc2=O)c1 [A131]
10 to 1000 nM | CCOC(=O)Nc1cccc(Cn2nc(-c3cccc(CC(N)=O)c3)ccc2=O)c1 [A69]
10 to 1000 nM | CCOC(=O)Nc1cccc(Cn2nc(-c3cccc(C(=O)NCCO)c3)ccc2=O)c1 [A49]
10 to 1000 nM | CCOC(=O)Nc1cccc(Cn2nc(-c3cccc(CNC(=O)CN(C)C)c3)ccc2=O)c1 [A102]
10 to 1000 nM | CCOC(=O)Nc1cccc(Cn2nc(-c3cccc(CNC(=O)CN4CCN(C)CC4)c3)ccc2=O)c1 [A106]
